{"source": "paper PMC13062086", "about": "“A sstR2-targeted radiohybrid theranostic agent for PET imaging and β^- therapy with excellent preclinical performance” (npj Imaging, 2026)", "origin": "cited, not measured here"}
{"biological_target": "T1, human serum albumin (HSA) (Homo sapiens, UniProt P02768)", "T1 construct": "purchased Daicel, Tokyo, Japan Chiralpak HSA column (50 × 3 mm, 5 μm, H13 h-2433)", "T1 sequence (P02768 25-609)": "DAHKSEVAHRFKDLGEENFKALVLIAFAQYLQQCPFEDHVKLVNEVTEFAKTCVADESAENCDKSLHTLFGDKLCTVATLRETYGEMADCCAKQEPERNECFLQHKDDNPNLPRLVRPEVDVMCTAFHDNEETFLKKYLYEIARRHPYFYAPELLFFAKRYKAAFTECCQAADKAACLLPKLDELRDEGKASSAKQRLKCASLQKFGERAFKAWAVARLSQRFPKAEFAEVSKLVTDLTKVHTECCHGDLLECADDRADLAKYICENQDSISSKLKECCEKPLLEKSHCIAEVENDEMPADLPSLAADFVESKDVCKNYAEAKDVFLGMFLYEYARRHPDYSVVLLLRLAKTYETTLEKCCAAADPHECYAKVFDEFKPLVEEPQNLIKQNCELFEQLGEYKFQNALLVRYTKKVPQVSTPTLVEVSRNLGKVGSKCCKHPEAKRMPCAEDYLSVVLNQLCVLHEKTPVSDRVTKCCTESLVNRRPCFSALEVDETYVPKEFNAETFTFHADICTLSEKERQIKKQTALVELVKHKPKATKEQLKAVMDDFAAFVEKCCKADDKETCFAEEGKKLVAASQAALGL", "design": "method as in earlier work", "settings": "literature-known values for calibration curve ref 2-3 (SI; main text 45, 46)", "units": {"HSA-binding": "%"}}
{"smiles": "Nc1ccccc1", "note": "[Aniline]", "HSA-binding": 14.06}
{"smiles": "O=C(O)c1ccccc1", "note": "[Benzoic acid]", "HSA-binding": 34.27}
{"smiles": "OCc1ccccc1", "note": "[Benzyl alcohol]", "HSA-binding": 13.15}
{"smiles": "COc1ccc(Cl)cc1C(=O)NCCc1ccc(S(=O)(=O)NC(=O)NC2CCCCC2)cc1", "note": "[Glibenclamide]", "HSA-binding": 99.00}
{"smiles": "Oc1ccccc1", "note": "[Phenol]", "HSA-binding": 20.69}
{"smiles": "CCCN(CCC)S(=O)(=O)c1ccc(C(=O)O)cc1", "note": "[Probenecid]", "HSA-binding": 95.00}
